{
  "source": "patent US20260146232A1",
  "about": "“METHODS FOR PROMOTING HOMING AND ENGRAFTMENT OF HEMATOPOIETIC STEM CELLS” (The Trustees of Indiana University, priority 2022, published 2026)",
  "key": {"[1]": {"system": "CXCR4", "experiment": "Surface CXCR4 protein level (MFI) by flow cytometry", "assay_type": "cell-based, human", "conditions": "for CXCR4 expression (MFI of cell surface CXCR4 protein level): human CB CD34+ cells treated 20 h, screen 10 μM unless otherwise stated; for effect of inhibition of mir-145 (sh-mir-145) on compound-induced CXCR4 expression: human CB CD34+ cells treated with compound and sh-mir-145; for effect of FTO inhibitor on AGII-induced CXCR4 upregulation: AGII-treated cells plus FTO inhibitor", "text": "(§1) Human CD34^+ CB cell collection and culture. Umbilical CB units were supplied by Cleveland Cord Blood Bank and CordUse, Orlando, FL, USA. All studies were approved by the institutional review board of the IUSM. Mononuclear cells were isolated by density gradient centrifugation and CD34^+ cells were isolated by immunomagnetic selection kit (Miltenyi Biotec, 130-046-702). […] For molecular compound treatment, all reagents were ordered from Cayman Chemical (Ann Arbor, MI, USA). Briefly, molecular compounds were added in the initiation of human CB CD34^+ cells culture, the time and concentration of each molecular compound for cell treatment was shown in figure legends.\nFlow cytometry. Fresh or cultured CB cells were sorted for different phenotypes by using the following antibodies. Antibodies were used to detect CD34 (BV786, BD Biosciences, 744741), CD34 (FITC, BD Biosciences, 340668), CD45RA (Taxe-red, BD Biosciences, 562298), CD90 (BV421, BD Biosciences, 562556), CD49f (cy5.5, BD Biosciences, 562495), CD38 (PE, BD Biosciences, 560981). CD3 (BV421, BD Biosciences, 562427), CD33 (PE, BD Biosciences, 555450), CD19 (PE, BD Biosciences, 555413), CXCR4 (APC, BD Biosciences, 555976) and CD45 (APC, BD Biosciences, 555485). Gating strategy of phenotypic HSCs were shown in supplementary FIG. 2B."}, "[2]": {"system": "YTHDF2", "experiment": "Relative YTHDF2 expression level in human CB CD34+ cells", "assay_type": "cell-based", "conditions": "human CB CD34+ cells treated 20 hours", "text": "as §1\nRNA extraction and real-time PCR. After cells were harvested by FACS, RNA was extracted by a RNeasy Mini Kit following manufacturer's protocol (Qiagen, 74106). Total RNA was reverse-transcribed by use of Superscript III kit (ThermoFisher, 18080093). Quantitative real-time PCR reactions were performed by SYBR Green PCR Master Mix (Thermo Fisher, Florence, KY, USA) and an Agilent Mx3000P QPCR System. Expression of housekeeping gene GAPDH was used as an internal control. Data are shown as relative mRNA level normalized to levels in vehicle control, set to 1."}, "[3]": {"system": "mir-145", "experiment": "Relative mir-145 expression level in human CB CD34+ cells", "assay_type": "cell-based", "conditions": "human CB CD34+ cells treated 20 hours", "text": "Human CD34^+ CB cell collection and culture. Umbilical CB units were supplied by Cleveland Cord Blood Bank and CordUse, Orlando, FL, USA. All studies were approved by the institutional review board of the IUSM. Mononuclear cells were isolated by density gradient centrifugation and CD34^+ cells were isolated by immunomagnetic selection kit (Miltenyi Biotec, 130-046-702). […] For molecular compound treatment, all reagents were ordered from Cayman Chemical (Ann Arbor, MI, USA). Briefly, molecular compounds were added in the initiation of human CB CD34^+ cells culture, the time and concentration of each molecular compound for cell treatment was shown in figure legends. RNA extraction and real-time PCR. After cells were harvested by FACS, RNA was extracted by a RNeasy Mini Kit following manufacturer's protocol (Qiagen, 74106). Total RNA was reverse-transcribed by use of Superscript III kit (ThermoFisher, 18080093). Quantitative real-time PCR reactions were performed by SYBR Green PCR Master Mix (Thermo Fisher, Florence, KY, USA) and an Agilent Mx3000P QPCR System. Expression of housekeeping gene GAPDH was used as an internal control. Data are shown as relative mRNA level normalized to levels in vehicle control, set to 1."}, "[4]": {"system": "human CB CD34+ cells", "experiment": "Chemotaxis (transwell migration) assay toward SDF-1, CB CD34+ cells", "assay_type": "cell-based", "conditions": "for chemotaxis of human CB CD34+ cells toward SDF-1: 20 h", "protocol": "(§2) Chemotaxis assay. Chemotaxis assays were performed in Costar 24-well trans-well plates with 6.5 mm diameter inserts with 5.0 μm pores (Corning, NY, USA). Briefly, 650 μL of IMDM medium (37° C.) that contained 0.5% bovine serum albumin (Sigma-Aldrich) and SDF-1 (0, 50 ng/mL) was added to the bottom well. Cells were suspended at 1×10^5 cells/100 μL in IMDM medium and loaded to the upper chamber of the trans-well. Trans-well plates were placed in a 37° C. incubator with 95% humidity and 5% CO2 for 4 hours. Percent migration was measured using flow cytometry with number of cells in the bottom chamber divided by number of cells placed in the upper chamber. To calculate the percent migration of CB HSCs, phenotypic HSCs was determined by surface staining and flow cytometry analysis. Human CB HSC chemotaxis was calculated as number of HSCs in the bottom chamber divided by number of HSCs loaded in the upper chamber. For AMD3100 administration, cells were treated with 5 μg/mL AMD3100 (239820, Sigma-Aldrich) for 30 min right before the chemotaxis assay."}, "[5]": {"system": "phenotypic HSC (CD34+ CD38- CD45RA- CD90+ CD49f+)", "experiment": "Chemotaxis (transwell migration) assay toward SDF-1, phenotypic HSCs", "assay_type": "cell-based, human", "conditions": "20 h", "protocol": "as §2"}, "[6]": {"system": "human CB CD34+ cells", "experiment": "Homing assay of treated human CB CD34+ cells in NSG mice", "assay_type": "in vivo", "conditions": "Raloxifene 40 μM, 20 h; 500,000 cells; 24 h after transplantation", "protocol": "Homing assay. Homing of human CB CD34^+ cells was evaluated in NSG mice. Molecular compounds treated or siRNA transfected human CB CD34+ cells (500,000 for each mouse) were intravenously injected into sub-lethally irradiated (350 cGy) NSG mice. After 24 h, these recipient mice were sacrificed, BM cells from each mouse were collected. Cells were stained with anti-human CD45 antibody, then resuspended in 1% formaldehyde buffer. Flow cytometry analysis was performed to determine the percentage of human CD45^+ cells. BM cells from non-transplanted NSG mice served as negative controls."}, "[7]": {"system": "CB CD34+ cells", "experiment": "Colony-forming unit (CFU) assay", "assay_type": "cell-based, human", "conditions": "20 h"}, "[8]": {"system": "human CB CD34+ cells", "experiment": "Long-term engraftment / limiting dilution analysis (LDA) in NSG mice", "assay_type": "in vivo", "conditions": "for engraftment in NSG mice vs vehicle control (human CD45+ cells in BM): 20 h, 4 months after transplantation; for human myeloid and B-cell chimerism in BM: 10,000 CB CD34+ cells; for engraftment in secondary recipients vs vehicle: secondary NSG mice at 4 months; for SRC frequency (Poisson distribution analysis): vehicle 1/4761", "protocol": "Limiting dilution analysis (LDA). Frequency of human SCID repopulating cells (SRCs) was determined by LDA as reported before. Increasing doses of GFP overexpressing CD34^+ cells (2500, 5000 or 10000 cells) were intravenously injected into sublethally irradiated NSG recipient mice (350 cGy; 137Cs source, single dose). Four months after transplantation, the percentage of GFP^+ human CD45^+ cell chimerism was analyzed by immunostaining and flow cytometry. For long-term engraftment assays that assess the self-renewal capacity of HSC, 3×10^6 BM cells from primary recipients of the 10000-cell group were intravenously transplanted into secondary sub-lethally irradiated NSG recipient mice."}},
  "data": [
    {"smiles": "C[C@@H]1C[C@H]2[C@@H]3CCC4=CC(=O)C=C[C@]4(C)[C@@]3(Cl)[C@@H](O)C[C@]2(C)[C@@]1(O)C(=O)CCl", "note": "[Mometasone]", "values": [
      {"measurement": "CXCR4 expression (MFI of cell surface CXCR4 protein level)", "setting": "[1]", "result": "strongly upregulated"},
      {"measurement": "effect of inhibition of mir-145 (sh-mir-145) on compound-induced CXCR4 expression", "setting": "[1]", "result": "did not affect"},
      {"measurement": "YTHDF2 expression", "setting": "[2]", "result": "downregulated"},
      {"measurement": "mir-145 expression", "setting": "[3]", "result": "strongly upregulated"}
    ]},
    {"smiles": "c1cc(CN2CCCNCCNCCCNCC2)ccc1CN1CCCNCCNCCCNCC1", "note": "[AMD3100]", "values": [
      {"measurement": "blocking of Raloxifene- and Imatinib-enhanced chemotaxis toward SDF-1", "setting": "[4]; 5 μg/mL AMD3100 for 30 min before the chemotaxis assay", "result": "fully blocked"},
      {"measurement": "blocking of AGII-enhanced migration toward SDF-1", "setting": "[4]; AMD3100 5 μg/mL for 30 min before assay, AGII-treated cells", "result": "blocked"},
      {"measurement": "blocking of chemotaxis of human CB CD34+ cells to SDF-1", "setting": "[4]; AMD3100, Control or si-YTHDF2 transfected cells", "result": "blocked"}
    ]},
    {"smiles": "Cc1ccc(Cl)c(Nc2ccccc2C(=O)O)c1Cl", "note": "[Meclofenamic Acid]", "values": [
      {"measurement": "effect of FTO inhibitor on AGII-induced CXCR4 upregulation", "setting": "[1]", "result": "repressed"}
    ]},
    {"smiles": "O=C(c1ccc(OCCN2CCCCC2)cc1)c1c(-c2ccc(O)cc2)sc2cc(O)ccc12", "note": "[Raloxifene]", "values": [
      {"measurement": "CXCR4 expression (MFI of cell surface CXCR4 protein level)", "setting": "[1]", "result": "strongly upregulated"},
      {"measurement": "effect of inhibition of mir-145 (sh-mir-145) on compound-induced CXCR4 expression", "setting": "[1]", "result": "significantly blocked"},
      {"measurement": "YTHDF2 expression", "setting": "[2]", "result": "downregulated"},
      {"measurement": "mir-145 expression", "setting": "[3]", "result": "strongly upregulated"},
      {"measurement": "chemotaxis of human CB CD34+ cells toward SDF-1", "setting": "[4]; Raloxifene 40 μM", "result": "significantly enhanced"},
      {"measurement": "migration to SDF-1 in phenotypic HSC population", "setting": "[5]; Raloxifene 40 μM", "result": "Enhanced migration"},
      {"measurement": "homing efficiency (human CD45+ cells in BM)", "setting": "[6]", "result": "dramatically increased"},
      {"measurement": "colony output vs control group", "setting": "[7]; Raloxifene 40 μM", "result": "no significant difference"},
      {"measurement": "engraftment in NSG mice vs vehicle control (human CD45+ cells in BM)", "setting": "[8]; Raloxifene 40 μM", "result": "significantly elevated"},
      {"measurement": "human myeloid and B-cell chimerism in BM", "setting": "[8]; Raloxifene-treated cells", "result": "increased"},
      {"measurement": "engraftment in secondary recipients vs vehicle", "setting": "[8]; Raloxifene-treated cells", "result": "Enhanced engraftment"},
      {"measurement": "SRC frequency (Poisson distribution analysis)", "setting": "[8]; Raloxifene-treated cells", "result": "1/1818"}
    ]},
    {"smiles": "Cc1ccc(NC(=O)c2ccc(CN3CCN(C)CC3)cc2)cc1Nc1nccc(-c2cccnc2)n1", "note": "[Imatinib]", "values": [
      {"measurement": "chemotaxis of human CB CD34+ cells toward SDF-1", "setting": "[4]; Imatinib 10 μM", "result": "significantly enhanced"},
      {"measurement": "migration to SDF-1 in phenotypic HSC population", "setting": "[5]; Imatinib 10 μM", "result": "Enhanced migration"},
      {"measurement": "colony output vs control group", "setting": "[7]; Imatinib 10 μM", "result": "no significant difference"},
      {"measurement": "engraftment in NSG mice vs vehicle control (human CD45+ cells in BM)", "setting": "[8]; Imatinib 10 μM", "result": "significantly elevated"},
      {"measurement": "human myeloid and B-cell chimerism in BM", "setting": "[8]; Imatinib-treated cells", "result": "increased"},
      {"measurement": "engraftment in secondary recipients vs vehicle", "setting": "[8]; Imatinib-treated cells", "result": "Enhanced engraftment"},
      {"measurement": "SRC frequency (Poisson distribution analysis)", "setting": "[8]; Imatinib-treated cells", "result": "1/1406"}
    ]},
    {"smiles": "Cc1noc(C)c1-c1cc(Cl)c(Nc2ccccc2C(=O)NO)c(Cl)c1", "note": "[FB23-2]", "values": [
      {"measurement": "effect of FTO inhibitor on AGII-induced CXCR4 upregulation", "setting": "[1]", "result": "repressed"}
    ]},
    {"smiles": "CC#CCC(C)[C@H](O)/C=C/[C@@H]1[C@H]2C/C(=C/CCCC(=O)O)C[C@H]2C[C@H]1O", "note": "(some centres unmarked) [Iloprost]", "values": [
      {"measurement": "CXCR4 expression (MFI of cell surface CXCR4 protein level)", "setting": "[1]", "result": "strongly upregulated"},
      {"measurement": "effect of inhibition of mir-145 (sh-mir-145) on compound-induced CXCR4 expression", "setting": "[1]", "result": "did not affect"},
      {"measurement": "YTHDF2 expression", "setting": "[2]", "result": "downregulated"},
      {"measurement": "mir-145 expression", "setting": "[3]", "result": "strongly upregulated"}
    ]}
  ]
}
